The source of these data is patent US7998492B2, “Methods and products related to treatment and prevention of hepatitis C virus infection” (Coley Pharmaceutical Group, Inc., priority 2002, dated 2011).

Entries after “also recorded” stand apart in the source; their conditions may differ.

Series [1] relates to PBMCs from normal or HCV infected subjects. The experiment in a line: IFN-α secretion by PBMC with Intron A, Ribavirin or CpG alone or in combination (ELISA). Format: cell-based, human. From the text: (§1) All oligonucleotide stocks were resuspended in TE buffer at pH 8.0 (OmniPer®; EM Science, Gibbstown, N.J.). Dilutions of various ODNs were made in RPMI 1640 complete media (Gibco BRL, Grand Island, N.Y.) containing 10% heat inactivated, normal human AB serum (Wisent Inc, St. Bruno, QC) and 1% penicillin/streptomycin (Gibco BRL, Grand Island, N.Y.) just prior to their use in cell assays. For the exogenous IFN-α synergy experiments, Intron A (Interferon Alfa-2b, DIN 02223406, Schering Canada Inc., Pointe-Claire, Quebec, Canada) was added to the ODN solutions to give final concentrations of 125 or 1000 IU/ml. Ribavirin (CAS 36791-04-5, Calbiochem, CN Biosciences Inc., La Jolla, Calif., USA) was reconstituted with sterile distilled water to produce a 500 μm stock and diluted in media as described above, to give a final concentration of 5 μm in wells. Cells were incubated at 37° C. with 5% CO2. After 48 h, cell supernatants were collected from each well and frozen at −80° C.
(§2) Peripheral blood mononuclear cells (PBMCs) were purified by centrifugation over Ficoll-Hypaque (Amersham Pharmacia Biotech, Uppsala, Sweden) at 400×g for, 35 min. Cells were resuspended at a concentration of 10×10^6/ml in RPMI complete media containing 10% normal human AB serum (heat inactivated) and 1% penicillin/streptomycin.
(§3) Freshly isolated PBMCs were resuspended at 10×10^6/ml (2× final concentration) and 100 μl of cells were added to each well of a 96 well flat-bottom plate containing an equal volume of ODN solution (2× final desired concentration). A range of concentrations (1, 3, 6 μg/ml) was tested for each ODN. Cells were incubated at 37° C. with 5% CO2. After 48 h, cell supernatants were collected from each well and frozen at −80° C. until assayed.
(§4) IFN-α, IP-10, IL-10 and IFN-levels in supernatants were measured using commercial ELISA Kits (R&D Systems, Minneapolis, Minn., USA; IP-10, Cat# DIP 100, IL-10, Cat# D1000, IFN-g Cat# DIF50 or PBL Biomedical, IFN-α Cat# 4110S). When measured ELISA values were below the detection limit of the kit as specified by the manufacturer, a value equal to the lowest detectable limit was entered into data tables.

Series [2] has as its system PBMCs from normal subjects. The experiment in a line: IFN-α secretion by PBMC from normal subjects after 48 h with CpG ODN (ELISA). The format is cell-based, human. The note with it: for IFN-α secretion level: PBMC from normal volunteers, 48 h, FIG. 1/3; for R, linear regression of number of pDC against amount of IFN-α secreted: normal subjects, pDC number by FACS.
Text: as §1, §2, §3, §4

In series [3] the test system is PBMCs from normal or HCV-infected subjects. The experiment in a line: IP-10 secretion by PBMC after 48 h with CpG ODN (ELISA). Format: cell-based, human. The following applies: similar in normal subjects and HCV chronic carriers, FIG. 7. How it is done:
as §2, §3, §4

Series [4] has as its system B cells in PBMCs from HCV-infected or normal donors. The experiment in a line: B-cell proliferation (3H-thymidine, stimulation index). The format is cell-based, human. The note with it: HCV-infected and normal populations, 5 days, FIGS. 8 and 9. How it is done: as §2
Cells were isolated as described above and resuspended at 1×10^6/ml in complete RPMI media 100 μl of cells were added to each well of round-bottom 96 well plates. ODN solutions (100 μl) were added to wells to give the selected range of final concentrations (1, 3, 6 μg/ml). Cells were cultured for 5 days and then pulsed with ^3H-Thymidine (1 μCi/well) for 18 h, before harvesting onto filter paper for measuring radioactivity. Results are reported as stimulation index (SI) with respect to untreated media control.

Series [5] concerns PBMCs from HCV-infected subjects. Put plainly: IFN-α secretion by PBMC from HCV chronic carriers after 48 h with CpG ODN (ELISA). Format: cell-based, human. The note with it: for R, linear regression of number of pDC against amount of IFN-α secreted: HCV infected subjects, pDC number by FACS; for IFN-α secretion level: PBMC from HCV chronic carriers, 48 h, FIG. 1/3/4.
Text: as §1, §2, §3, §4

Series [6] relates to PBMCs from normal or HCV-infected subjects. Put plainly: IFN-γ secretion by PBMC after 48 h with CpG ODN (ELISA). The format is cell-based, human. The note with it: HCV-infected and normal PBMCs similar, FIG. 5/6. As for the experimental part:
as §2, §3, §4

The conditions of series [7]: adjuvant to a commercial hepatitis B vaccine, phase I/II; cited from earlier work.

With `NC(=O)c1ncn([C@@H]2O[C@H](CO)[C@@H](O)[C@H]2O)n1` [Ribavirin], the “induction of IFN-α secretion” value in series [1] (HCV-infected PBMCs, on their own or together, FIG. 11) is on record as “Neither Ribavirin nor Intron A, on their own or together, resulted in the induction of IFN-α secretion”; in series [1] (PBMCs from normal or HCV infected subjects, alone or in combination), “Neither commercial Intron-A (IFN-α-2b) nor Ribavirin, alone or in combination, were capable of inducing IFN-α secretion”. The “effect on the efficacy of CpG” value in series [1] (combined with CpG ODN) is reported as “reduced the efficacy of CpG”. In addition, the immunostimulatory activity entry in series [1] (human PBMCs) is given as “no immunostimulatory activity”. For the same compound, in series [1] (in combination with Intron A), the “endogenous IFN-α production” value was “did not enhance endogenous IFN-α production”.

Turning to “G-G-GGACGACGTCGTGG-G-G-G-G-G (DNA GGGGACGACGTCGTGGGGGGG; chemistry not given here) [SEQ ID NO. 1, A class CpG ODN]”, in series [2], the IFN-α secretion level result is reported as “very high levels” and the “R, linear regression of number of pDC against amount of IFN-α secreted” value (from here on “R, linear regression of number of pDC”) is 0.43. In addition, the IP-10 secretion level entry in series [3] is “Highest levels”. Moreover, the B cell stimulation entry in series [4] is “poor stimulator of B cells”. Also, in series [5] (HCV chronic carrier PBMC versus normal PBMC, FIG. 1), the “IFN-α induced relative to the normal level” value is on record as “about 50%”. Besides, in series [5], the “R, linear regression of number of pDC” value is given as 0.02 and the IFN-α secretion level entry is “higher levels”. Further, in series [6], the IFN-γ secretion level entry is on record as “low levels”.

As to “TCGTCGTTTTGTCGTTTTGTCGTT [SEQ ID NO. 2]”, the IFN-α secretion level result is “only low levels” in series [2], “the same as those obtained with the normal PBMCs” in series [5] (listed as B) and “lower levels” in series [5] (listed as Class B). Also, the IP-10 secretion level entry in series [3] is listed as “lowest”. For the same compound, in series [4], the B cell stimulation result is listed as “strongly activated B cells”. The “function as vaccine adjuvant” value in series [7] is reported as “functions well as a vaccine adjuvant”. Besides, the IFN-γ secretion level entry in series [6] is “moderate amounts”.

On to “TCGTCGTTTTCGGCGGCCGCCG (chemistry not given here) [SEQ ID NO. 4, C class CpG ODN]”, for which the IFN-α secretion level result is “moderately high levels” in series [2] and “the same as those obtained with the normal PBMCs; also recorded: higher levels” in series [5] (listed as C). In addition, the figures for the “R, linear regression of number of pDC” value in series [2] and in series [5] were 0.58 and 0.08, respectively. Besides, the IP-10 secretion level result in series [3] is on record as “next highest”. Moreover, the B cell stimulation result in series [4] was “strongly activated B cells”. In series [1] (PBMCs from HCV infected subjects, combination with Intron-A), the “synergy with exogenous IFN-α for IFN-α secretion” value was “synergy”. Besides, in series [6], the IFN-γ secretion level entry is given as “high concentrations”.
